According to paper PMC9926234, “Iterative computational design and crystallographic screening identifies potent inhibitors targeting the Nsp3 macrodomain of SARS-CoV-2” (Proceedings of the National Academy of Sciences of the …, 2023):
Where “and” joins values, the source holds several entries; their conditions need not be identical. Equal entries are not always repeated. Where two headings read alike, the source gives them in different places.

Tests used:
[1] = test system: SARS-CoV-2 NSP3 Mac1; experiment: Overall hit call (binding in crystallographic soaking or the HTRF-based binding assay)
Source text: Supplement pnas.2212931120.sd01.xlsx, sheet "Compound Summary" | column: HIT*

[2] = biological target: T1, SARS-CoV-2 NSP3 Mac1 (Severe acute respiratory syndrome coronavirus 2, UniProt P0DTD1); experiment: biochemical; type: binding; conditions: for Ki: Ki estimation from HTRF-derived IC50, Cheng-Prusoff, peptide 400nM, Kd 2.68µM
[3] = biological target: T1, SARS-CoV-2 NSP3 Mac1; type: binding; conditions: for Refined occupancy: ligand occupancy after refinement (phenix.refine)
[4] = biological target: T1, SARS-CoV-2 NSP3 Mac1; type: binding; set-up: contains a conserved macrodomain enzyme (Mac1); conditions: for Spearman est (compound concentration vs apparent Tm): DSF dose responsiveness, 1 µM nsp3 mac1, adj p given
Summary of the method: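 ΔTma values are thermal shifts relative to a co-located DMSO-only control, read with 5 µM Fluorescent Yellow dye. Each compound was tested in triplicate over seven concentrations (two-fold steps, top 1,000 or 100 μM). Spearman correlation of concentration versus ΔTma tested whether the shift was dose-responsive.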

[5] = HTRF ADPr-peptide displacement from SARS-CoV-2 Mac1, read-out: IC50
[6] = PanDDA 1-BDC value of the event, crystal soak, compound concentration 100 mM, per dataset
[7] = PanDDA event map, 1 minus background density correction, crystal soaking of Mac1
[8] = crystal soak, compound concentration 100 mM, per dataset
[9] = ligand modeled in the crystal structure, crystal soak, compound concentration 100 mM, per dataset
[10] = overall hit flag: binding in crystallographic soaking or the HTRF-based binding assay
[11] = maximal thermal upshift vs DMSO control
[12] = ligand modeled from this dataset, compound concentration 100 mM, Echo dispense volume 40 or 80 nl
[13] = true hit = binding in crystallographic soaking or the HTRF-based binding assay
[14] = IC50, HTRF ADPr-peptide displacement from SARS-CoV-2 Mac1

CC(=O)Nc1nc(C)c(S(=O)(=O)Nc2ccc(C)c(C#N)c2)s1 [Z6707]
HIT* [1]: Y

Cc1oc(C(N)=O)cc1S(=O)(=O)Nc1ccc(Br)c(C#N)c1 [Z6708]
HIT* [1]: Y

Cc1oc(C(N)=O)cc1S(=O)(=O)Nc1cnc(Cl)c(C#N)c1 [Z6746]
HIT* [1]: Y

O=C(O)c1ccc(F)c(CNC(=O)c2ccc3[nH]ccc3c2)c1 [Z7647]
HIT* [1]: Y

COC(=O)Nc1ccc(C(=O)NC2c3ccccc3CC2C(=O)O)cc1 (stereo not drawn) [Z8531]
IC50 [2, 5]: > 250 µM
1-BDC [3, 6]: 0.04
1-BDC [3, 7]: 0.04
PanDDA hit? [3, 8]: TRUE
Modeled? [3, 9]: TRUE
Refined occupancy ([3]; crystal soaking of Mac1): 8
HIT* [3, 10]: Y
Spearman est (compound concentration vs apparent Tm) [4]: 0.72
DSF max dTma [4, 11]: 0.6 °C

O=C(NC1c2cccc(O)c2CC1C(=O)O)c1ccc(Nn2ccnc2)cc1 (stereo not drawn) [Z8539_0011]
IC50 [2, 5]: 19 µM
Ki ([2]; read-out: Ki***): 16.5 µM
1-BDC [3, 6]: 0.25
1-BDC [3, 7]: 0.35
PanDDA hit? [3, 8]: TRUE
Modeled? [3, 12]: TRUE
Refined occupancy ([3]; crystal soaking of Mac1): 70
HIT* [3, 13]: Y
Spearman est (compound concentration vs apparent Tm) [4]: 0.18
DSF max dTma ([4]; maximal thermal upshift): 1.23 ˚C

O=C(Nc1ccccc1)Nc1ccc(C(=O)NC2c3cccc(O)c3CC2C(=O)O)cc1 (stereo not drawn) [Z8539_0023]
IC50 [2, 14]: 0.5 µM
Ki ([2]; Ki***): 0.4 µM
1-BDC [3, 6]: 0.17
1-BDC [3, 7]: 0.17
PanDDA hit? [3, 8]: TRUE
Modeled? [3, 9]: TRUE
Refined occupancy ([3]; crystal soaking of Mac1): 34
HIT* [3, 13]: Y
thermal upshift ([4]; DSF): 9 °C
Spearman est (compound concentration vs apparent Tm) [4]: 0.81
DSF max dTma ([4]; maximal thermal upshift): 9.9 ˚C

O=C(Nc1ccc(C(=O)NCc2c(C(=O)O)sc3ccccc23)cc1)NC1CC1 [Z8539_0025]
IC50 [2, 5]: 20 µM
IC50 ([2]; HTRF, read-out: IC50): 20.4 µM
Ki ([2]; read-out: Ki***): 17.8 µM
1-BDC [3, 6]: 0.24
1-BDC [3, 7]: 0.24
PanDDA hit? [3, 8]: TRUE
Modeled? [3, 12]: TRUE
Refined occupancy ([3]; crystal soaking of Mac1): 48
HIT* [3, 13]: Y
Spearman est (compound concentration vs apparent Tm) [4]: 0.17
DSF max dTma ([4]; maximal thermal upshift): 0.91 ˚C

O=C(Nc1ccc(C(=O)NCc2c(C(=O)O)oc3ccccc23)cc1)NC1CC1 [Z8539_0026]
IC50 [2, 5]: 84 µM
IC50 ([2]; HTRF, read-out: IC50): 83.8 µM
Ki ([2]; read-out: Ki***): 72.9 µM
1-BDC [3, 6]: 0.3
1-BDC [3, 7]: 0.33
PanDDA hit? [3, 8]: TRUE
Modeled? [3, 12]: TRUE
Refined occupancy ([3]; crystal soaking of Mac1): 66
HIT* [3, 13]: Y
Spearman est (compound concentration vs apparent Tm) [4]: 0.37
DSF max dTma ([4]; maximal thermal upshift): 3.52 ˚C

O=C(Nc1ccc(C(=O)NCc2c(C(=O)O)[nH]c3ccccc23)cc1)NC1CC1 [Z8539_0027]
IC50 [2, 14]: 7.6 µM
Ki ([2]; Ki***): 6.6 µM
1-BDC [3, 6]: 0.29
1-BDC [3, 7]: 0.23
PanDDA hit? [3, 8]: TRUE
Modeled? [3, 12]: TRUE
Refined occupancy ([3]; crystal soaking of Mac1): 46
HIT* [3, 13]: Y
Spearman est (compound concentration vs apparent Tm) [4]: 0.7
DSF max dTma ([4]; maximal thermal upshift): 6.22 ˚C

NC(=O)Nc1ccc(C(=O)NC2c3cccc(O)c3CC2C(=O)O)cc1 (stereo not drawn) [Z8539_0041]
binding to Mac1 in the HTRF assay, result in words [2]: did not substantially change binding affinity
IC50 ([2]; HTRF, read-out: IC50): 1.3 µM
Ki ([2]; read-out: Ki***): 1.1 µM
1-BDC [3, 6]: 0.24
1-BDC [3, 7]: 0.24
PanDDA hit? [3, 8]: TRUE
Modeled? [3, 9]: TRUE
Refined occupancy ([3]; crystal soaking of Mac1): 48
HIT* [3, 13]: Y
Spearman est (compound concentration vs apparent Tm) [4]: 0.6
DSF max dTma ([4]; maximal thermal upshift): 6 ˚C

CC(C)NC(=O)Nc1ccc(C(=O)NC2c3cccc(O)c3CC2C(=O)O)cc1 (stereo not drawn) [Z8539_0046]
binding to Mac1 in the HTRF assay, result in words [2]: did not substantially change binding affinity
IC50 ([2]; HTRF, read-out: IC50): 0.8 µM
Ki ([2]; read-out: Ki***): 0.7 µM
1-BDC [3, 6]: 0.23
1-BDC [3, 7]: 0.21
PanDDA hit? [3, 8]: TRUE
Modeled? [3, 12]: TRUE
Refined occupancy ([3]; crystal soaking of Mac1): 42
HIT* [3, 13]: Y
Spearman est (compound concentration vs apparent Tm) [4]: 0.49
DSF max dTma ([4]; maximal thermal upshift): 6.41 ˚C

CO[C@@H]1CN(c2ncnc3[nH]c4cc(F)ccc4c23)C[C@@H](CO)O1 [Z8973]
HIT* [1]: Y

COC(=O)C1(CO)CCN(c2ncnc3[nH]c4cc(F)ccc4c23)C1 (stereo not drawn) [Z9556]
HIT* [1]: Y

O=C(O)CC1CN(c2ncnc3[nH]ccc23)CCO1 (stereo not drawn) [Z9572]
IC50 [2, 5]: 227 µM and 234 µM
IC50 ([2]; HTRF, several values in a cell are separate determinations, read-out: IC50): 227 µM
Ki ([2]; read-out: Ki***): 197 µM
1-BDC [3, 7]: 0.09
Modeled? ([3]; ligand modeled in structure, crystal soak, Compound_concentration 100 mM): TRUE
Refined occupancy ([3]; crystal soaking of Mac1): 18
HIT* [3, 10]: Y
Spearman est (compound concentration vs apparent Tm) [4]: 0.62
DSF max dTma [4, 11]: 0.66 °C

O=C(NC1c2ccccc2CC1C(=O)O)c1ccc(NC(=O)C2CC2)cc1 (stereo not drawn) [Z9604]
IC50 [2, 5]: > 250 µM
1-BDC [3, 6]: 0.04
1-BDC [3, 7]: 0.04
PanDDA hit? [3, 8]: TRUE
Modeled? [3, 9]: TRUE
Refined occupancy ([3]; crystal soaking of Mac1): 8
HIT* [3, 10]: Y
Spearman est (compound concentration vs apparent Tm) [4]: 0.76
DSF max dTma [4, 11]: 0.79 °C
